The record followed here is patent publication EP0619297B1, “Fungicides for the control of take-all desease of plants” (MONSANTO COMPANY, priority 1993, dated 1994).

In assay [1] the test system is Gaeumannomyces graminis var. tritici (Ggt). Nature of the assay: In vitro assay: mycelial growth on minimal media agar plates (Percent Inhibition; IC50). The conditions noted are these: for inhibition at 0.1 ppm: 0.1 ppm in agar, read-out: In vitro(ppm) 0.1, Percent Inhibition; for inhibition at 0.1 ppm / inhibition at 1 ppm / inhibition at 10 ppm: 19 - 20 °C, 4 to 5 days; for inhibition at 1 ppm: 1 ppm in agar, read-out: In vitro(ppm) 1, Percent Inhibition; for inhibition at 10 ppm: 10 ppm in agar, read-out: In vitro(ppm) 10, Percent Inhibition; for IC50: interpolated from percent inhibition at 1, 0.1, 0.01, 0.001 and 0.0001 ppm. It is filed as cell-based. A digest of the protocol:
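Test compounds, supplied as 0.25 mL of acetone stock, were mixed into 25 mL of minimal media agar made from Czapek Dox broth and agar, with thiamine hydrochloride and biotin added. Three 4-mm Gaeumannomyces graminis var. tritici plugs were placed on each plate. Plates were kept dark at 19 - 20 °C for 4 to 5 days. Percent inhibition was then calculated from mycelial diameters relative to controls.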

For assay [2], the system named is Ggt. In words: In vivo assay: control of Ggt on wheat in 3-inch pots with infested soil, rated after four weeks.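 On In vivo(ppm) 0.1, percent disease control: rate is mg active ingredient per pot in 3 mL solution not ppm.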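 On In vivo(ppm) 0.5, percent disease control: rate is mg active ingredient per pot in 3 mL solution not ppm.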 Details: species or system Gaeumannomyces graminis var. tritici. To be noted: Gaeumannomyces graminis, 672 h, wheat, soil infested with Ggt, after four weeks; for pest or weed control at 0.02 mg/pot: rate 0.02mg/pot, read-out: In vivo(ppm) 0.02mg/pot, percent disease control; for pest or weed control at 0.1 mg/pot: rate 0.1 (head prints ppm, head line ends mg/pot), read-out: In vivo(ppm) 0.1, percent disease control; for pest or weed control at 0.1 mg/pot / pest or weed control at 0.5 mg/pot: N = no control; for pest or weed control at 0.5 mg/pot: rate 0.5 (head prints ppm, head line ends mg/pot), read-out: In vivo(ppm) 0.5, percent disease control. The essentials: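 Wheat ('Bergen' or 'Anza') was sown four seeds per 3-inch square pot in soil infested with Gaeumannomyces graminis (Ggt), introduced as colonized dried oats mixed in at 4% v/v. After treatment, seeds were covered with soil and vermiculite and kept in a watered growth chamber. Five pots per treatment level, plus untreated, inoculated and non-inoculated controls, were used. After four weeks, seminal roots were scored 0–5 under a dissecting microscope, and percent disease control was calculated against the untreated control.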

For assay [3], the system named is Ggt. In words: In vivo (8 week) seed treatment assay: Large Pot Greenhouse Take-All Assay. The conditions noted are these: wheat, 6-inch pots, roots rated after 7-10 weeks; for % control (rates are g/kg seed) 0.25: seed treatment 0.25 g/kg seed; for % control (rates are g/kg seed) 0.5: seed treatment 0.5 g/kg seed; for % control (rates are g/kg seed) 1 g: seed treatment 1 g/kg seed. Also noted: species or system Gaeumannomyces graminis var. tritici. On the procedure:
An advanced 8-week seed treatment in vivo assay in soil is as follows.
Compounds are tested for control of Ggt on 'Bergen' or 'Anza' varieties of wheat grown in 6-inch round pots containing soil (equal to thirds of Metro-mix, sand, and silt-loam field soil, all steam sterilized). Seeds are treated with a solution of compound of the present invention at 10,000 ppm stock solution in acetone. 20 mg in 2 ml will treat 10 g of seed at each of 4 rates. Using a 10,000 ppm stock for each compound make the following dilutions series:
A treatment jar is rinsed 2 times with 3 ml of actone. Then 1 ml of the solution is swirled to cover the base of the jar. 10 g of seed are added to the jar and capped after which the jar is swirled and shaken until the seeds get a rapid and even coverage. After about 30-50 seconds the lid is removed as the shaking is continued. After 1 minute the jar is set down to dry. When dry, the seed are poured back into the envelope for either planting in the pots or stored until such planting. The method of planting is as follows:
The 6-inch pots are packed to their ledge with the above soil mix.
a) Treated seed is placed on the surface of the soil (packed to ledge) at the rate of 8 seeds per pot with the seeds about 2-3 inches apart. 5 pots (replicates) are planted per treatment. b) 15 ml of oat inoculum (about 4g) are measured and sprinkled evenly over the soil surface of each pot. c) The soil/seed/inoculum is covered with 180 ml of soil mix (same as above). A 150 ml beaker filled to the top edge-is about 180 ml. d) Initially each of the prepared pots is watered lightly several times to wet soil without washing out seeds. e) In cool winter months the prepared pots are left in the greenhouse at 16° - 18°C with only minimal supplemental light. In warmer months the prepared pots are put in a growth chamber set at 17°C for 3-4 weeks to establish disease, then placed in a greenhouse until harvest. The wheat is harvested, washed, and the roots are rated after 7-10 weeks. f) A % of diseased root area is assigned values using 1, 5, 10, 20, 30, 40, 50, 60, 80, or 100 %. Each pot of plants gets a single rating.

In brackets after ≈: the same amount, converted by molar mass.

Broadly, the inhibition is the share of the control response that was lost under treatment. The term IC50 denotes the concentration that inhibits the measured activity by half. A high value points to lower potency. Turning to `C=CCNC(=O)c1c(OC(C)(CC)CC)ccc2ccccc12` [Example 29, N-allyl 2-[(1,1-diethylethyl)oxy]-1-naphthamide], in assay [1], the inhibition at 0.1 ppm worked out at 96%, the inhibition at 1 ppm came to 96%, the inhibition at 10 ppm was determined as 96% and half-maximal inhibition (IC50) was put at 8.14 ng/mL (≈ 0.0261 µM). In addition, in the assay on Ggt [2], the pest or weed control at 0.02 mg/pot turned out to be 40%, the pest or weed control at 0.1 mg/pot worked out at 57% and the pest or weed control at 0.5 mg/pot worked out at 75%. Also, in the assay on Ggt [3], the “% control (rates are g/kg seed) 0.25” value is given as 0%, the “% control (rates are g/kg seed) 0.5” value is 4% and the “% control (rates are g/kg seed) 1 g” value worked out at 4%.
Regarding `CCN(CC)C(=O)c1c(OC(C)(CC)CC)ccc2ccccc12` [Example 30, N,N-diethyl 2-[(1,1-diethylethyl)oxy]-1-naphthamide], in assay [1], the inhibition at 0.1 ppm was found to be 91%, the inhibition at 1 ppm is 96%, the inhibition at 10 ppm is 96% and the IC50 turned out to be 7.43 ng/mL (≈ 0.0227 µM). Besides, in the assay on Ggt [2], the pest or weed control at 0.02 mg/pot was found to be 31%, the pest or weed control at 0.1 mg/pot is 43% and the pest or weed control at 0.5 mg/pot stood at 28%. In the assay on Ggt [3], the “% control (rates are g/kg seed) 0.25” value is 22%, the “% control (rates are g/kg seed) 0.5” value is given as 0% and the “% control (rates are g/kg seed) 1 g” value stood at 13%.
Take `CCCNC(=O)c1c(OC(CC)(CC)CC)ccc2ccccc12` [Example 34, N-propyl 2-[(1,1-diethylpropyl)oxy]-1-naphthamide]: in assay [1], the inhibition at 0.1 ppm was determined as 95%, the inhibition at 1 ppm came out at 95%, the inhibition at 10 ppm was found to be 95% and the IC50 was 6.62 ng/mL (≈ 0.0202 µM). Further, in the assay with Ggt [2], the pest or weed control at 0.02 mg/pot was determined as 18%, the pest or weed control at 0.1 mg/pot is 44% and the pest or weed control at 0.5 mg/pot worked out at 49%. In the assay with Ggt [3], the “% control (rates are g/kg seed) 0.25” value is recorded as 17%, the “% control (rates are g/kg seed) 0.5” value came to 0% and the “% control (rates are g/kg seed) 1 g” value is on record as 9%.
On to `C=CCNC(=O)c1c(OC2(C)CCCC2)ccc2ccccc12` [Example 37, N-allyl 2-[(1-methyl-1-cyclopentyl)oxy]-1-naphthamide], for which, in assay [1], the inhibition at 0.1 ppm is 93%, the inhibition at 1 ppm worked out at 98%, the inhibition at 10 ppm was 98% and the concentration for half-maximal inhibition (IC50) turned out to be 7.43 ng/mL (≈ 0.024 µM). In the assay with Ggt [2], the pest or weed control at 0.02 mg/pot was determined as 28%, the pest or weed control at 0.1 mg/pot amounted to 53% and the pest or weed control at 0.5 mg/pot is 63%. Moreover, in the assay with Ggt [3] (seed treatment 0.125 g/kg seed), the “% control (rates are g/kg seed) 0.125” value is listed as 4%. In the assay with Ggt [3], the “% control (rates are g/kg seed) 0.25” value is recorded as 4%, the “% control (rates are g/kg seed) 0.5” value is recorded as 4% and the “% control (rates are g/kg seed) 1 g” value was found to be 4%.
For `CCCNC(=O)c1c(OC2(C)CCCCC2)ccc2ccccc12` [Example 40, N-propyl 2-[(1-methyl-1-cyclohexyl)oxy]-1-naphthamide], in assay [1], the inhibition at 0.1 ppm came to 74%, the inhibition at 1 ppm was determined as 83%, the inhibition at 10 ppm amounted to 98% and the 50% inhibitory concentration (IC50) was determined as 63.6 ng/mL (≈ 0.195 µM). In addition, in the assay with Ggt [2], the pest or weed control at 0.02 mg/pot stood at 3%, the pest or weed control at 0.1 mg/pot was 32% and the pest or weed control at 0.5 mg/pot amounted to 60%. In addition, in the assay on Ggt [3], the “% control (rates are g/kg seed) 0.25” value came to 13%, the “% control (rates are g/kg seed) 0.5” value was determined as 13% and the “% control (rates are g/kg seed) 1 g” value stood at 22%.
